In the PolyMetriX glass transition set:
± gives the standard deviation of the reports.

SMILES | glass transition temperature [°C]
*Oc1ccc(C(C)(C)c2ccc(Oc3ccc(C(=O)c4c(C(=O)c5ccc(*)cc5)c(-c5ccccc5)c(-c5ccc6ccccc6c5)c(-c5ccc6ccccc6c5)c4-c4ccccc4)cc3)cc2)cc1 (repeat unit) | 264.00
*CCSSSS* (repeat unit) | -24.00
*Oc1ccc(NC(=O)c2cc(NC(=O)c3ccccc3)cc(C(=O)Nc3ccc(*)cc3)c2)cc1 (repeat unit) | 294.50
*Oc1ccc(C(=O)c2ccc(Oc3ccc(C(=O)c4c(C(=O)c5ccc(*)cc5)c(-c5ccc(F)cc5)c(-c5ccc(F)cc5)c(-c5ccc(F)cc5)c4-c4ccc(F)cc4)cc3)cc2)cc1 (repeat unit) | 260.00
*C(=O)c1ccc2c(c1)/C(=N\c1ccc(Oc3ccc(C(c4ccc(Oc5ccc(/N=C6/OC(=O)c7ccc(*)cc76)cc5)cc4)(C(F)(F)F)C(F)(F)F)cc3)cc1)OC2=O (repeat unit) | 248.00
*CC(*)c1c(Cl)cccc1Cl (repeat unit) | 165.00
*/C(C)=C(/*)SCCCCCCCCCC (repeat unit) | 60.00
*c1ccc2c(c1)C(=O)N(c1c(C(C)C)cc(Cc3cc(C(C)C)c(N4C(=O)c5ccc(C(*)(C(F)(F)F)C(F)(F)F)cc5C4=O)c(C(C)C)c3)cc1C(C)C)C2=O (repeat unit) | 278.50
*Oc1ccc(S(=O)(=O)c2ccc3cc(S(=O)(=O)c4ccc(Oc5c(C)cc(-c6cc(C)c(*)c(C)c6)cc5C)cc4)ccc3c2)cc1 (repeat unit) | 280.00
*OP(=O)(Oc1ccc([N+](=O)[O-])cc1)Oc1ccc(S(=O)(=O)c2ccc(*)cc2)cc1 (repeat unit) | 114.00
*c1ccc(Oc2ccc(N3C(=O)c4ccc(C(=O)c5ccc6c(c5)C(=O)N(c5ncc(*)s5)C6=O)cc4C3=O)cc2)cc1 (repeat unit) | 320.20
*CCCCOc1ccc(/C=C2\CC/C(=C\c3ccc(OCCCCOP(=O)(O*)OCC)c(OC)c3)C2=O)cc1OC (repeat unit) | 79.00
*C(=O)Nc1ccc(C2(c3ccc(NC(=O)c4ccc5c(c4)C(=O)N(c4ccc(Oc6ccc(N7C(=O)c8ccc(*)cc8C7=O)cc6)cc4)C5=O)cc3)c3ccccc3-c3ccccc32)cc1 (repeat unit) | 240.00
*OP(=O)(Oc1c(Cl)cc(Cl)cc1Cl)Oc1c(Cl)c(Cl)c(*)c(Cl)c1Cl (repeat unit) | 127.00
*c1ccc([Si](c2ccccc2)(c2ccccc2)c2ccc(-c3nnc(-c4ccc(-c5nnc(*)o5)nc4)o3)cc2)cc1 (repeat unit) | 272.00
*CC(C)(CC)CO* (repeat unit) | -47.00
*c1ccc2c(c1)C(=O)N(c1ccc(N(c3ccc(C#N)cc3)c3ccc(N4C(=O)c5ccc(C(*)(C(F)(F)F)C(F)(F)F)cc5C4=O)cc3)cc1)C2=O (repeat unit) | 321.00

SMILES | glass transition temperature [°C]
*C(=O)c1ccc2c(c1)C(=O)N(c1c(C(C)C)cc(Cc3cc(C(C)C)c(N4C(=O)c5ccc(*)cc5C4=O)c(C(C)C)c3)cc1C(C)C)C2=O (repeat unit) | 263.00
*c1ccc(Oc2c(C)cc(-c3cc(C)c(Oc4ccc(N5C(=O)c6ccc(Oc7ccccc7Oc7ccc8c(c7)C(=O)N(*)C8=O)cc6C5=O)cc4C(F)(F)F)c(C)c3)cc2C)c(C(F)(F)F)c1 (repeat unit) | 270.00
*CC(*)(F)C(=O)OCC(F)(F)C(F)F (repeat unit) | 90.50
*c1ccc(Oc2ccc(Oc3ccc(Oc4ccc(-c5cnc6ccc(-c7ccc8nc(*)cnc8c7)cc6n5)cc4)cc3)cc2)cc1 (repeat unit) | 216.00
*c1ccc2c(c1)C(=O)N(c1ccc3c(c1)Cc1cc(N4C(=O)c5ccc(C(*)(C(F)(F)F)C(F)(F)F)cc5C4=O)ccc1-3)C2=O (repeat unit) | 394.00
*C(=O)NC1CCCC(*)O1 (repeat unit) | 145.00
*c1ccc(Oc2ccc(-c3ccc(Oc4ccc(N5C(=O)c6cccc(Oc7ccc(C(c8ccc(Oc9cccc%10c9C(=O)N(*)C%10=O)cc8)(C(F)(F)F)C(F)(F)F)cc7)c6C5=O)cc4)cc3)cc2)cc1 (repeat unit) | 234.00
*c1ccc2c(c1)C(=O)N(c1ccc(NC(=O)C(F)(F)C(F)(F)C(F)(F)C(F)(F)C(F)(F)C(F)(F)C(=O)Nc3ccc(N4C(=O)c5ccc(C(*)(C(F)(F)F)C(F)(F)F)cc5C4=O)cc3)cc1)C2=O (repeat unit) | 265.00
*OC(=O)Nc1ccc(C)c(NC(=O)OC2CCN(c3ccc(/C=C/C4=CC(=C(C#N)C#N)C=C(/C=C/c5ccc(N6CCC(*)CC6)s5)O4)s3)CC2)c1 (repeat unit) | 212.00
*c1ccc2c(c1)C(=O)N(c1cccc(C(=O)Nc3ccc(-c4ccc(NC(=O)c5cccc(N6C(=O)c7ccc(C(*)(C(F)(F)F)C(F)(F)F)cc7C6=O)c5)cc4)cc3)c1)C2=O (repeat unit) | 324.00
*/N=N/c1ccc(Nc2ccc(C(=O)c3ccc(C(=O)c4ccc(Nc5ccc(*)cc5)cc4)cc3)cc2)cc1 (repeat unit) | 203.00
*CCCCOC(=O)C1CCC(C(=O)O*)CC1 (repeat unit) | -10.50
*c1ccc(Oc2ccc(S(=O)(=O)c3ccc(Oc4ccc(-c5nc(-c6ccccn6)nnc5*)cc4)cc3)cc2)cc1 (repeat unit) | 265.00
*/C=C(/*)c1ccccc1C(F)(F)F (repeat unit) | 130.00
*Oc1ccc(NC(=O)c2cc(C(=O)Nc3ccc(*)cc3)cc(S(=O)(=O)c3ccccc3)c2)cc1 (repeat unit) | 279.00
*C(=O)OC1CC2CC(OC(=O)N3CCN(*)CC3)CC(C1)O2 (repeat unit) | 113.00
*c1ccc(Oc2ccc(N3C(=O)c4ccc(Oc5c(Oc6ccc7c(c6)C(=O)N(*)C7=O)cc(C(C)(C)C)cc5C(C)(C)C)cc4C3=O)cc2)cc1 (repeat unit) | 228.00

Other lines, results leading:

glass transition temperature [°C] | SMILES
138.00 | *Oc1ccc(-c2ccc(OC(=O)c3cc(CCCCC)cc(C(*)=O)c3)cc2)cc1 (repeat unit)
180.00 | *c1ccc(Oc2ccc(C(C)(C)c3ccc(Oc4ccc(-c5nnc(*)o5)cc4)cc3)cc2)cc1 (repeat unit)
46.50 | *CCCCCNC(=O)CCCCC(=O)N* (repeat unit)
84.00 | *Oc1c(C)cc(C(C)(C)c2cc(C)c(OC(=O)CCCCCC(*)=O)c(C)c2)cc1C (repeat unit)
40.00 | *CCCCCCCCCCCCOc1ccc(C(C)Cc2ccc(-c3ccc(O*)cc3)cc2)cc1 (repeat unit)
279.00 | *c1ccc(Oc2ccc(N3C(=O)c4ccc(-c5ccc6c(c5)C(=O)N(*)C6=O)cc4C3=O)cc2)cc1 (repeat unit)
45.00 | *CC(*)(C)C(=O)OCCCCOc1ccc(C(=O)Oc2ccc(OC)cc2)cc1 (repeat unit)
121.42 ± 2.3 | *CCOC(=O)c1ccc2cc(C(=O)O*)ccc2c1 (repeat unit) [Poly(ethylene 2,6-naphthalate)]
70.00 | *CCCCCCn1ccc(-c2cccc(-c3ccn(*)n3)c2)n1 (repeat unit)
113.00 | *CCCCOC(=O)Nc1ccc(-c2ccc(NC(=O)OCCCCn3c4ccccc4c4cc(/C=C(\C#N)C(=O)OCCCCCCOC(=O)/C(C#N)=C/c5ccc6c(c5)c5ccccc5n6*)ccc43)c(C)c2)cc1C (repeat unit)
150.00 | *Oc1ccc(-c2ccc(Oc3ccc(Oc4cc(Oc5ccc(*)cc5)ccc4CCCCCC)cc3)c3ccccc23)c2ccccc12 (repeat unit)
82.00 | *CCCCCC(=O)Oc1ccc(OC(=O)CCCCCn2c(=O)c3cc4c(=O)n(*)c(=O)c4cc3c2=O)c(-c2ccccc2)c1 (repeat unit)
271.00 | *Nc1ccc(C(=O)c2ccc(NC(=O)c3cc(C(*)=O)cc(C(C)(C)C)c3)cc2)cc1 (repeat unit)
85.00 | *CCCCCCOc1ccc(N(c2ccccc2)c2ccc(-c3ccc(N(c4ccccc4)c4ccc(O*)cc4)cc3)cc2)cc1 (repeat unit)
-12.00 | *CCCCCCCCOc1ccc(CCc2ccc(O*)cc2C)cc1 (repeat unit)
184.42 ± 6.3 | *Oc1ccc(C(C)(C)c2ccc(OC(=O)c3cccc(C(*)=O)c3)cc2)cc1 (repeat unit) [Poly(bisphenol A isophthalate)]
301.00 | *c1ccc2oc(-c3cccc(-c4nc5cc(C(*)(C(F)(F)F)C(F)(F)F)ccc5o4)c3)nc2c1 (repeat unit)
72.00 | *CC(*)C(=O)Oc1ccccc1C(C)(C)C (repeat unit)
72.00 | *CCCCCCCCOc1ccc(/C=C2\CCC/C(=C\c3ccc(O*)c(OC)c3)C2=O)cc1OC (repeat unit)
61.30 | *O[Si](*)(C)CCCOc1ccc(C(=O)Oc2ccc(-c3ccc(OC(=O)c4cc(OCC)c(OCC)c(OCC)c4)cc3)cc2)cc1 (repeat unit)
-4.60 | *CCC[Si](*)(C)O[Si](C)(C)CCCOc1ccc(-c2ccc(C#N)cc2)cc1 (repeat unit)
72.00 | *OC(CCl)COC(=O)C1=C(C(=O)OCC(CCl)OC(=O)c2ccc(C(*)=O)cc2)C2C=CC1C2 (repeat unit)
6.00 | *CCCOC(=O)Nc1cc(NC(=O)O*)ccc1C (repeat unit)
254.00 | *c1ccc(C(=O)c2ccc(Oc3ccc(-c4nn(*)c(=O)c5ccccc45)cc3Br)cc2)cc1 (repeat unit)
148.00 | *C1C2CC(CCCCc3ccccc3)C(C2)C1* (repeat unit)
150.00 | *Oc1ccc(C(C)(CCC#N)c2ccc(OC(*)=O)cc2)cc1 (repeat unit)
39.00 | *CC(*)(C)C(=O)OCCCCCCOc1ccc2cc(C(=O)Oc3ccccc3)ccc2c1 (repeat unit)
274.00 | *c1ccc(Oc2ccc(Oc3ccc(N4C(=O)C5CCC6C(=O)N(*)C(=O)C6C5C4=O)cc3)cc2)cc1 (repeat unit)
82.00 | *CC(*)(C)C(=O)OCc1c(F)cccc1F (repeat unit)
